Legend:
mitochondrial complex I = test: Mitochondrial complex I activity assay (NADH dehydrogenase); format: biochemical, rat; conditions: in place of CoQ1
Protocol: Fresh rat heart was removed and placed in ice-cold mitochondrial isolation buffer containing 210 mM mannitol, 70 mM sucrose, 5 mM HEPES, and 1 mM EDTA, pH 7. The heart was homogenized immediately, and the mitochondrial fraction was isolated by differential centrifugation as described previously (Trounce et al., 1996). Mitochondria were stored at −80° C. until subsequent analysis.
All mitochondrial activity assays were performed according to previous publications with minimal modifications for complex I (Lenaz et al., 2004), complex I-III, complex II, complex III, and II-III (Trounce et al., 1996). […] Complex I activity was monitored by adding NADH to the mix with or without rotenone/antimycin A. The final data were normalized to blank values at time zero. The reaction was monitored in a kinetic spectrophotometer at 340 nm. Complex I activity was measured in arbitrary units and normalized to control levels for statistical analysis. Isolated mitochondria equivalent to 40-200 μg mitochondrial protein was used for each assay, except for assays with inhibitors, when larger amount of mitochondria (3 to 5 folds) were used to ensure that inhibition was distinguishable. Final data were normalized to control levels. For complex I-III activity, the reaction was initiated with the addition of NADH, cyt c was used as final substrate and its reduction was monitored at 550 nm. For assay of complex II-III activity, succinate was added instead of NADH, and the electron transfer to cyt c was performed according to previous publications (Atamna et al., 2008). To test whether the electrons from the reduced form of MB (MBH2) can be transferred to cyt c in mitochondrial lysate, we added 10 μM 2,7-dichlorofluorescin (DCFH, Invitrogen, Carlsbad, Calif.) to the reaction system. Free radicals convert non-fluorescent DCFH to highly fluorescent DCF (Ex, 488 nm, and Em, 530 nm). In the presence of cyt c, which accepts electrons from MBH2, conversion of DCFH to DCF is decreased.

[1] = system: rotenone induced rat model of PD; test: Rotenone model of PD: striatal monoamines, brain complex I-III activity and total ROS; format: in vivo
Protocol: All mitochondrial activity assays were performed according to previous publications with minimal modifications for complex I (Lenaz et al., 2004), complex I-III, complex II, complex III, and II-III (Trounce et al., 1996). All assays used a similar master mix that contained potassium phosphate pH 7.4 (50 mM), BSA 2.5mg/ml, MgCl2 5 mM, KCN (2 mM), and various inhibitors or substrates, including rotenone (6 μM), antimycin A (2 μM), NADH (150 μM), CoQ1 (60 μM), cyt c (50 μM), succinate (8 mM), and DBH2 (100 μM). Complex I activity was monitored by adding NADH to the mix with or without rotenone/antimycin A. The final data were normalized to blank values at time zero. The reaction was monitored in a kinetic spectrophotometer at 340 nm. Complex I activity was measured in arbitrary units and normalized to control levels for statistical analysis. Isolated mitochondria equivalent to 40-200 μg mitochondrial protein was used for each assay, except for assays with inhibitors, when larger amount of mitochondria (3 to 5 folds) were used to ensure that inhibition was distinguishable. Final data were normalized to control levels. For complex I-III activity, the reaction was initiated with the addition of NADH, cyt c was used as final substrate and its reduction was monitored at 550 nm. For assay of complex II-III activity, succinate was added instead of NADH, and the electron transfer to cyt c was performed according to previous publications (Atamna et al., 2008). To test whether the electrons from the reduced form of MB (MBH2) can be transferred to cyt c in mitochondrial lysate, we added 10 μM 2,7-dichlorofluorescin (DCFH, Invitrogen, Carlsbad, Calif.) to the reaction system. Free radicals convert non-fluorescent DCFH to highly fluorescent DCF (Ex, 488 nm, and Em, 530 nm). In the presence of cyt c, which accepts electrons from MBH2, conversion of DCFH to DCF is decreased.
Rats were assigned to three groups: control animals received vehicle infusion and daily saline injection (Veh/Sal N=6-8); a second group received rotenone infusion at the dose of 5 mg/kg/day and daily saline injection (ROT/Saline N=8-11); and the third group received rotenone infusion (5 mg/kg/day) and MB injection at the dose of 500 μg/kg/day (ROT/MB N=8-10). Vehicle or rotenone was infused via Alzet osmotic mini pumps that were filled with vehicle or rotenone dissolved in vehicle (equal volumes of dimethylsulfoxide and polyethylene glycol). Pumps containing vehicle or rotenone were sterilized with UV irradiation and implanted subcutaneously on the back. Intraperitoneal injections were administered with normal saline or MB, 500 μg/kg/day, diluted in normal saline to 500 μl of final volume. Rats were sacrificed on day 8 at four hours after last dose of MB or saline treatment.
After completion of neurological assessments and behavioral tests, rats were killed on the 8th day of rotenone infusion under anesthesia induced by xylazine (20 mg/kg, i.p.) and ketamine (100 mg/kg, i.p.). All osmotic pumps were checked for the residual liquid to ensure proper drug delivery. One hemisphere was fixed by 4% paraformaldehyde in phosphate buffer for 48 hr until processing for sectioning. The other hemisphere was snap-frozen in liquid nitrogen, and kept at −80° C. until extraction for biochemical analysis. Striatum dissected from a separate set of animals were used for analysis of monoamines by HPLC. […]

FRDA fibroblast = test: BSO induced FRDA fibroblast cell death; format: cell-based

CN(C)c1ccc2nc3ccc(=[N+](C)C)cc-3sc2c1 [methylene blue]
Substrate of NADH dehydrogenase in complex I (accepts electrons from NADH) (mitochondrial complex I): can completely replace CoQ1 as a direct substrate
Decrease of complex I-III activity in brain extracts ([1]; MB 500 μg/kg/day i.p.): prevented
Overall ROS in brain extracts ([1]; MB 500 μg/kg/day i.p.): attenuated in the ROT/MB group to basal level
Striatum L-DOPAC depletion ([1]; MB 500 μg/kg/day i.p.): almost completely rescued
Striatum dopamine depletion ([1]; MB 500 μg/kg/day i.p.): almost completely rescued
Striatum 5-HT levels ([1]; all three groups): no significant differences
Damaging effects of BSO (cell death) (FRDA fibroblast): greatly ameliorates

Source: patent US20140148446A1, “COMPOUNDS THAT ENABLE ALTERNATIVE MITOCHONDRIAL ELECTRON TRANSFER” (University of North Texas Health Science Center, priority 2010, published 2014)
